Results: PubChem BioAssay (NCI)
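Values below derive from 48-hour exposures of cells grown in 96-well plates, with endpoints linearly interpolated between the two concentrations bracketing the appropriate inhibition level. TGI is the concentration that stops growth completely.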

Assays:
Test in all cases: NCI-60 cell line screen, 48 h
[1] = tested on: OVCAR-8 ovarian
[2] = tested on: CAKI-1 renal
[3] = tested on: SK-MEL-5 melanoma
[4] = tested on: SF-295 CNS
[5] = tested on: K-562 leukemia
[6] = tested on: DLD-1 colon
[7] = tested on: SF-268 CNS
[8] = tested on: UACC-62 melanoma
[9] = tested on: HOP-62 NSCLC
[10] = tested on: OVCAR-3 ovarian
[11] = tested on: A549 NSCLC
[12] = tested on: HCT-15 colon
[13] = tested on: HCT-116 colon
[14] = tested on: SW-620 colon
[15] = tested on: HT29 colon
[16] = tested on: SF-539 CNS
[17] = tested on: HS 578T breast
[18] = tested on: PC-3 prostate
[19] = tested on: MDA-MB-435

## COc1cc(C2C(Cl)C(=O)N2NC(=O)Cc2ccccc2)ccc1O (stereo unspecified)
[1]
  TGI: > 100 µM
[2]
  TGI: > 100 µM
[3]
  TGI: > 100 µM
[4]
  TGI: > 100 µM
[5]
  TGI: > 100 µM
[6]
  TGI: > 100 µM
[7]
  TGI: > 100 µM
[8]
  TGI: > 100 µM
[9]
  TGI: > 100 µM
[10]
  TGI: > 100 µM
[11]
  TGI: > 100 µM
[12]
  TGI: > 100 µM
[13]
  TGI: > 100 µM
[14]
  TGI: > 100 µM
[15]
  TGI: > 100 µM

## O=C(Nc1cc(Cl)c(Cl)cc1Cl)C(=O)C(C(=O)c1ccc2ccccc2c1)C1OC(=O)c2ccccc21 (stereo unspecified)
[1]
  TGI: 23.6 µM
[3]
  TGI: 24.4 µM
[4]
  TGI: 21 µM
[6]
  TGI: 32.9 µM
[16]
  TGI: 13 µM
[8]
  TGI: 26.9 µM
[9]
  TGI: 43.5 µM
[10]
  TGI: 59.5 µM
[11]
  TGI: 81.5 µM
[12]
  TGI: 45.2 µM
[13]
  TGI: 34.6 µM
[14]
  TGI: 25.6 µM
[15]
  TGI: 37.3 µM

## CCCCCC(=O)Cc1cc(OC)cc2c1C(=O)Oc1cc(O)c(C(=O)O)c(CC(=O)CCCCC)c1O2
[1]
  TGI: > 100 µM
[2]
  TGI: > 100 µM
[3]
  TGI: > 100 µM
[4]
  TGI: > 100 µM
[5]
  TGI: > 100 µM
[6]
  TGI: > 100 µM
[7]
  TGI: > 100 µM
[8]
  TGI: 49.6 µM
[9]
  TGI: > 100 µM
[10]
  TGI: 43.8 µM
[11]
  TGI: > 100 µM
[13]
  TGI: 71.2 µM
[14]
  TGI: > 100 µM
[15]
  TGI: > 100 µM

## CN(CC#N)C(=O)Cc1ccc([N+](=O)[O-])cc1
[1]
  TGI: > 10 µM
[2]
  TGI: > 10 µM
[17]
  TGI: > 10 µM
[3]
  TGI: > 10 µM
[4]
  TGI: > 10 µM
[5]
  TGI: > 10 µM
[16]
  TGI: > 10 µM
[7]
  TGI: > 10 µM
[8]
  TGI: > 10 µM
[18]
  TGI: > 10 µM
[9]
  TGI: > 10 µM
[10]
  TGI: > 10 µM
[11]
  TGI: > 10 µM
[12]
  TGI: > 10 µM
[19]
  TGI: > 10 µM
[13]
  TGI: > 10 µM
[14]
  TGI: > 10 µM
[15]
  TGI: > 10 µM

## COP(=O)(C(/C=C/c1ccccc1)OC(C)=O)[C@@H]1CCCC[C@H]1N(CC(C)(C)C)C(C)=O (stereo partly specified)
[1]
  TGI: 35.6 µM
[2]
  TGI: 92.6 µM
[17]
  TGI: 31.1 µM
[3]
  TGI: 27.3 µM
[4]
  TGI: 39.9 µM
[5]
  TGI: 53 µM
[16]
  TGI: 33.4 µM
[7]
  TGI: 40.8 µM
[8]
  TGI: 28 µM
[18]
  TGI: 37.4 µM
[9]
  TGI: 42.3 µM
[10]
  TGI: 31.9 µM
[11]
  TGI: 47.3 µM
[12]
  TGI: 61.6 µM
[19]
  TGI: 36.2 µM
[13]
  TGI: 25.6 µM
[14]
  TGI: 41.2 µM
[15]
  TGI: 28 µM

## N#CC(c1ccccc1)(c1ccccc1)[C@@H](c1ccccc1)[C@H](Cc1ccccc1)NS(=O)(=O)c1ccccc1
[1]
  TGI: > 100 µM
[2]
  TGI: > 100 µM
[17]
  TGI: > 100 µM
[3]
  TGI: > 100 µM
[4]
  TGI: > 100 µM
[5]
  TGI: > 100 µM
[16]
  TGI: > 100 µM
[7]
  TGI: > 100 µM
[8]
  TGI: > 100 µM
[18]
  TGI: > 100 µM
[9]
  TGI: > 100 µM
[10]
  TGI: > 100 µM
[11]
  TGI: > 100 µM
[12]
  TGI: > 100 µM
[19]
  TGI: > 100 µM
[13]
  TGI: > 100 µM
[14]
  TGI: > 100 µM
[15]
  TGI: > 100 µM

## c1ccc2c3nnc(c2c1)SCCSCCCSCCS3
[1]
  TGI: > 100 µM
[2]
  TGI: > 100 µM
[17]
  TGI: > 100 µM
[3]
  TGI: > 100 µM
[4]
  TGI: > 100 µM
[5]
  TGI: > 100 µM
[16]
  TGI: 40.6 µM
[7]
  TGI: > 100 µM
[8]
  TGI: > 100 µM
[18]
  TGI: > 100 µM
[9]
  TGI: 70.9 µM
[10]
  TGI: > 100 µM
[11]
  TGI: > 100 µM
[12]
  TGI: > 100 µM
[19]
  TGI: > 100 µM
[13]
  TGI: > 100 µM
[14]
  TGI: > 100 µM
[15]
  TGI: > 100 µM

## O=c1c2ncn(CCCl)c2n(-c2ccccc2)c(=S)n1-c1ccccc1
[1]
  TGI: > 100 µM
[2]
  TGI: > 100 µM
[17]
  TGI: > 100 µM
[3]
  TGI: > 100 µM
[4]
  TGI: > 100 µM
[5]
  TGI: > 100 µM
[16]
  TGI: > 100 µM
[7]
  TGI: > 100 µM
[8]
  TGI: > 100 µM
[18]
  TGI: > 100 µM
[9]
  TGI: > 100 µM
[10]
  TGI: > 100 µM
[11]
  TGI: > 100 µM
[12]
  TGI: > 100 µM
[19]
  TGI: > 100 µM
[13]
  TGI: > 100 µM
[14]
  TGI: > 100 µM
[15]
  TGI: > 100 µM

## Cc1cc(=O)oc2c(CNC(C(=O)O)C(C)O)c(O)ccc12 (stereo unspecified)
[1]
  TGI: > 100 µM
[2]
  TGI: > 100 µM
[17]
  TGI: > 100 µM
[3]
  TGI: > 100 µM
[4]
  TGI: > 100 µM
[5]
  TGI: > 100 µM
[16]
  TGI: > 100 µM
[7]
  TGI: > 100 µM
[8]
  TGI: > 100 µM
[18]
  TGI: > 100 µM
[9]
  TGI: > 100 µM
[10]
  TGI: > 100 µM
[11]
  TGI: > 100 µM
[12]
  TGI: > 100 µM
[19]
  TGI: > 100 µM
[13]
  TGI: > 100 µM
[14]
  TGI: > 100 µM
[15]
  TGI: > 100 µM

## CNC(=O)OCCN1c2ccccc2Sc2ccccc21
[1]
  TGI: > 100 µM
[2]
  TGI: > 100 µM
[17]
  TGI: > 100 µM
[3]
  TGI: > 100 µM
[4]
  TGI: > 100 µM
[5]
  TGI: > 100 µM
[16]
  TGI: > 100 µM
[7]
  TGI: > 100 µM
[8]
  TGI: > 100 µM
[18]
  TGI: > 100 µM
[9]
  TGI: 89.2 µM
[10]
  TGI: > 100 µM
[11]
  TGI: > 100 µM
[12]
  TGI: > 100 µM
[19]
  TGI: > 100 µM
[13]
  TGI: > 100 µM
[14]
  TGI: > 100 µM
[15]
  TGI: > 100 µM

## CC1=NN(c2ccccc2)C(=O)C1=C1SCCCS1
[1]
  TGI: > 100 µM
[2]
  TGI: 52.1 µM
[3]
  TGI: > 100 µM
[4]
  TGI: 73.7 µM
[5]
  TGI: 47.6 µM
[6]
  TGI: 45.9 µM
[7]
  TGI: > 100 µM
[8]
  TGI: 39.7 µM
[9]
  TGI: > 100 µM
[10]
  TGI: 70.7 µM
[11]
  TGI: > 100 µM
[12]
  TGI: > 100 µM
[13]
  TGI: 31.7 µM
[14]
  TGI: 26.6 µM
[15]
  TGI: > 100 µM

## COc1ccc2[nH]c3c(C)c4cnccc4c(C)c3c2c1
[1]
  TGI: 2.2 µM
[2]
  TGI: > 10 µM
[17]
  TGI: > 10 µM
[3]
  TGI: > 10 µM
[4]
  TGI: > 10 µM
[5]
  TGI: > 10 µM
[16]
  TGI: 3.3 µM
[7]
  TGI: > 10 µM
[8]
  TGI: > 10 µM
[18]
  TGI: > 10 µM
[9]
  TGI: 2.78 µM
[10]
  TGI: 2.43 µM
[11]
  TGI: 3.65 µM
[12]
  TGI: 3.4 µM
[19]
  TGI: 2.84 µM
[13]
  TGI: 2.5 µM
[14]
  TGI: 3.4 µM
[15]
  TGI: 3.41 µM
